Legend:
[1] = target: T1, Alpha-1B adrenergic receptor (Homo sapiens, UniProt P35368); test: Tested for binding affinity against recombinant human Alpha-1B adrenergic receptor using [125I]HEAT in competition binding assay
T1 sequence (P35368 whole entry): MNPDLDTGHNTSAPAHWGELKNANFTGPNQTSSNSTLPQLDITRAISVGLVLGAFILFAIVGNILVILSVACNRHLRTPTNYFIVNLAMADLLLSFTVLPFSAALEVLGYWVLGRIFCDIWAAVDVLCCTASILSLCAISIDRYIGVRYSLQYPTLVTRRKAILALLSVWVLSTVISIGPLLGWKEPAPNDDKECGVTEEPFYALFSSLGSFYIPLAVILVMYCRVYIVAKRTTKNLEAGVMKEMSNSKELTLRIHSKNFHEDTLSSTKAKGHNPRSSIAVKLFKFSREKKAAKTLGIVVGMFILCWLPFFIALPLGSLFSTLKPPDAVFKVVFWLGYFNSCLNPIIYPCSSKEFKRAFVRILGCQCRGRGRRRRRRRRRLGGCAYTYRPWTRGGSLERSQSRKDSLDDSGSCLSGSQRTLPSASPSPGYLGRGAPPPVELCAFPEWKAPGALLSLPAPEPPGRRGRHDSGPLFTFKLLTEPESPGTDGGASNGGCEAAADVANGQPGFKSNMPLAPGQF

[2] = target: T2, Alpha-1D adrenergic receptor (Homo sapiens, UniProt P25100); test: Tested for binding affinity against recombinant human Alpha-1D adrenergic receptor using [125I]-HEAT in competition binding assay
T2 sequence (P25100 whole entry): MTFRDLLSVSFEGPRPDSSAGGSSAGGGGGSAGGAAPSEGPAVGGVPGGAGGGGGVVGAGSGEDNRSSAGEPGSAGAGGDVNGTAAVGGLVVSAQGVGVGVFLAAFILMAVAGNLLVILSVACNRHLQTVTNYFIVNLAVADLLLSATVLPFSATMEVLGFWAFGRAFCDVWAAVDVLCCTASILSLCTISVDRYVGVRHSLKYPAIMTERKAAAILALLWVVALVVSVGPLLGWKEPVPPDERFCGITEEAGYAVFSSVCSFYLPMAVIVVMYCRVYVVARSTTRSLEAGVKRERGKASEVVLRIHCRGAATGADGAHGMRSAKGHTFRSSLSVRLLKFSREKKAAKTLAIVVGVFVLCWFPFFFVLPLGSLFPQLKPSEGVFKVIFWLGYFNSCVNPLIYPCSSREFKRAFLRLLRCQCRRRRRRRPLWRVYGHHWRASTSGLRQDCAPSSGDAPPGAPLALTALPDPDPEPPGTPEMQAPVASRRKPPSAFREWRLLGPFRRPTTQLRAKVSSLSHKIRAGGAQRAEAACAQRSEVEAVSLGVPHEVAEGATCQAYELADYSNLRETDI

Ki [1] [nM]	Ki [2] [nM]	SMILES
74	193	C[C@H]1OC(=O)N(C(=O)NCCCN2CCC(c3ccc(F)cc3)CC2)[C@@H]1c1ccc(F)c(F)c1
76		C[C@@H]1OC(=O)N(C(=O)NCCCN2CCC(c3ccc(F)cc3)CC2)[C@@H]1c1ccc(F)c(F)c1
48	92	C[C@H]1OC(=O)N(C(=O)NCCCN2CCC(c3ccc(F)cc3)CC2)[C@H]1c1ccc(F)c(F)c1

From ChEMBL document CHEMBL1132838, “Determination of the relative and absolute stereochemistry of a potent and alpha1A-selective adrenoceptor antagonist” (Bioorg Med Chem Lett, 2000)
